This passage reports EC50 and Emax results from patent US20260176320A1, “MODULATORS OF G-PROTEIN COUPLED RECEPTORS” (priority 2018, published 2026).

As usually defined, the Emax is the size of the effect at its maximum, as opposed to the concentration needed.

Assay type in all cases: cell-based
In one assay the target is T1, GIP-R (Homo sapiens, UniProt P48546).
T1 sequence (P48546 22-466): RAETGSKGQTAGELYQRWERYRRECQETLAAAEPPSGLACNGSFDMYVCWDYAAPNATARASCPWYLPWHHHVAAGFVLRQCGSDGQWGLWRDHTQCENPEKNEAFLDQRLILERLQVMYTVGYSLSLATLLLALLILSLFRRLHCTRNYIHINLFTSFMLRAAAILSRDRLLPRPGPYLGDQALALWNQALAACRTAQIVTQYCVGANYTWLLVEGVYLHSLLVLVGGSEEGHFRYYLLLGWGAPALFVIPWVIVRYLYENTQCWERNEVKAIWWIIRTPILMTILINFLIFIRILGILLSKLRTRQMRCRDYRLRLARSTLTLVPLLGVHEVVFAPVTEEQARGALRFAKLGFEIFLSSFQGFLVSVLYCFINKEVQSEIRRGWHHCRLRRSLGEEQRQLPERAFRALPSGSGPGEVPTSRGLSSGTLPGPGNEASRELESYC
Nature of the assay: HitHunter cAMP assay (GIP-R). The note with it: Table 3A, cAMP; for Emax: read-out: (Emax) GIP-R. In a few lines: (§1)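 Suspension cells expressing each receptor (10,000 per well) in HBSS with 10 mM HEPES, 625 μM IBMX and 0.2% BSA were treated with a 22-point 2-fold agonist series in duplicate for 30 minutes at room temperature. cAMP was detected by antibody immunocompetition with luminescence read after overnight incubation.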

For assay [1], the target named is T2, GLP-1R (Homo sapiens, UniProt P43220). The assay is described as follows: PathHunter β-arrestin assay. In a few lines: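 Cells seeded overnight, then medium replaced with medium containing 0.2% BSA; agonists added as 22-point 2-fold DMSO dilution series in duplicate and incubated 90 min at 37 °C, 5% CO2. After addition of detection solution, plates sat 3 h at room temperature in the dark; luminescence read.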
T2 sequence (P43220 24-463): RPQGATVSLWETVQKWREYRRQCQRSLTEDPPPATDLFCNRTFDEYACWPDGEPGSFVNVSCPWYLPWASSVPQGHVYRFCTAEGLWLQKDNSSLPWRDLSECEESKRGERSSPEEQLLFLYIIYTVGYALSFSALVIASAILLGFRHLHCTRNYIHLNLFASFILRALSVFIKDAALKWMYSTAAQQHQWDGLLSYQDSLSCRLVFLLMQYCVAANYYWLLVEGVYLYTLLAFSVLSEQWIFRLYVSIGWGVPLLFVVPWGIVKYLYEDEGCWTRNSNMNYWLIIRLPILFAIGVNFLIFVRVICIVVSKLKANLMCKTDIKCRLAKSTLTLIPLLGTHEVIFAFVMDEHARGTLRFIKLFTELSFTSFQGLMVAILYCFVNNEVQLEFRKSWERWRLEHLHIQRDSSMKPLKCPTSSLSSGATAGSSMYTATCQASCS

The target of assay [2] is T2, GLP-1R. The assay is described as follows: HitHunter cAMP assay (GLP-1R). The note with it: Table 3A, cAMP; for Emax: read-out: (Emax) GLP-1R. The procedure, abridged: as §1
Setting [3] is: PathHunter β-arrestin assay, read-out: β-arrestin activity EC50.

Read-outs that look alike come from different tables or passages of the source.

As for `CCCCCCCCCCCCCCCC(=O)N[C@@H](CCC(=O)NCCCC[C@H](NC(=O)[C@H](CO)NC(=O)[C@@H]1CCCN1C(=O)[C@@H]1CCCN1C(=O)[C@@H]1CCCN1C(=O)[C@H](C)NC(=O)CNC(=O)[C@H](CO)NC(=O)[C@H](CO)NC(=O)[C@@H]1CCCN1C(=O)CNC(=O)CNC(=O)[C@H](C)NC(=O)[C@H](CC(C)C)NC(=O)[C@H](CC(C)C)NC(=O)[C@H](Cc1c[nH]c2ccccc12)NC(=O)[C@H](CC(N)=O)NC(=O)[C@@H](NC(=O)[C@H](Cc1ccccc1)NC(=O)[C@H](CCC(=O)O)NC(=O)C(C)(C)NC(=O)[C@H](C)NC(=O)[C@H](C)NC(=O)[C@H](CCC(N)=O)NC(=O)[C@H](CCCCN)NC(=O)[C@H](CC(=O)O)NC(=O)[C@H](CC(C)C)NC(=O)[C@H](Cc1ccc(O)cc1)NC(=O)[C@@H](NC(=O)[C@H](CO)NC(=O)[C@H](Cc1ccc(O)cc1)NC(=O)[C@H](CC(=O)O)NC(=O)[C@H](CO)NC(=O)[C@@H](NC(=O)[C@H](Cc1ccccc1)NC(=O)[C@@H](NC(=O)CNC(=O)[C@H](CCC(=O)O)NC(=O)CSCC(=O)NCCn1cc(C)ccc1=O)[C@@H](C)O)[C@@H](C)O)[C@@H](C)CC)C(C)C)C(N)=O)C(=O)O` [Compound 238], the results for the EC50 at GIP-R (EC50 GIP-R/nM), at GLP-1R [1] and on GLP-1R [2] (EC50 GLP-1R/nM) were 1 to 10 nM, greater than 1000 nM and 0.1 to 1 nM, respectively. The Emax at GIP-R was 82%; at GLP-1R [2] it was 95%.

Regarding `CCCCCCCCCCCCCCCC(=O)N[C@@H](CCC(=O)NCCCC[C@H](NC(=O)[C@H](CO)NC(=O)[C@@H]1CCCN1C(=O)[C@@H]1CCCN1C(=O)[C@@H]1CCCN1C(=O)[C@H](C)NC(=O)CNC(=O)[C@H](CO)NC(=O)[C@H](CO)NC(=O)[C@@H]1CCCN1C(=O)CNC(=O)CNC(=O)[C@H](C)NC(=O)[C@H](CC(C)C)NC(=O)[C@H](CC(C)C)NC(=O)[C@H](Cc1c[nH]c2ccccc12)NC(=O)[C@H](CC(N)=O)NC(=O)[C@@H](NC(=O)[C@H](Cc1ccccc1)NC(=O)[C@H](CCC(=O)O)NC(=O)C(C)(C)NC(=O)[C@H](C)NC(=O)[C@H](C)NC(=O)[C@H](CCC(N)=O)NC(=O)[C@H](CCCCN)NC(=O)[C@H](CC(=O)O)NC(=O)[C@H](CC(C)C)NC(=O)[C@H](Cc1ccc(O)cc1)NC(=O)[C@@H](NC(=O)[C@H](CO)NC(=O)[C@H](Cc1ccc(O)cc1)NC(=O)[C@H](CC(=O)O)NC(=O)[C@H](CO)NC(=O)[C@@H](NC(=O)[C@H](Cc1ccccc1)NC(=O)[C@@H](NC(=O)CNC(=O)[C@H](CCC(=O)O)NC(=O)CSCC(=O)NCCn1ccc(=O)[nH]c1=O)[C@@H](C)O)[C@@H](C)O)[C@@H](C)CC)C(C)C)C(N)=O)C(=O)O` [Compound 239], the EC50 at GIP-R (EC50 GIP-R/nM) is 10 to 100 nM; on GLP-1R [1], greater than 1000 nM; on GLP-1R [2] (EC50 GLP-1R/nM) it was 0.1 to 1 nM. Further, the Emax at GIP-R came out at 46%; on GLP-1R [2], 100%.

Regarding `CCCCCCCCCCCCCCCC(=O)N[C@@H](CCC(=O)NCCCC[C@H](NC(=O)[C@H](CO)NC(=O)[C@@H]1CCCN1C(=O)[C@@H]1CCCN1C(=O)[C@@H]1CCCN1C(=O)[C@H](C)NC(=O)CNC(=O)[C@H](CO)NC(=O)[C@H](CO)NC(=O)[C@@H]1CCCN1C(=O)CNC(=O)CNC(=O)[C@H](C)NC(=O)[C@H](CC(C)C)NC(=O)[C@H](CC(C)C)NC(=O)[C@H](Cc1c[nH]c2ccccc12)NC(=O)[C@H](CC(N)=O)NC(=O)[C@@H](NC(=O)[C@H](Cc1ccccc1)NC(=O)[C@H](CCC(=O)O)NC(=O)C(C)(C)NC(=O)[C@H](C)NC(=O)[C@H](C)NC(=O)[C@H](CCC(N)=O)NC(=O)[C@H](CCCCN)NC(=O)[C@H](CC(=O)O)NC(=O)[C@H](CC(C)C)NC(=O)[C@H](Cc1ccc(O)cc1)NC(=O)[C@@H](NC(=O)[C@H](CO)NC(=O)[C@H](Cc1ccc(O)cc1)NC(=O)[C@H](CC(=O)O)NC(=O)[C@H](CO)NC(=O)[C@@H](NC(=O)[C@H](Cc1ccccc1)NC(=O)[C@@H](NC(=O)CNC(=O)[C@H](CCC(=O)O)NC(=O)CSCC(=O)NCCn1c(C)cccc1=O)[C@@H](C)O)[C@@H](C)O)[C@@H](C)CC)C(C)C)C(N)=O)C(=O)O` [Compound 240], the EC50 was 1 to 10 nM on GIP-R (EC50 GIP-R/nM), greater than 1000 nM at GLP-1R [1] and 0.1 to 1 nM at GLP-1R [2] (EC50 GLP-1R/nM). Besides, the maximum response (Emax) at GIP-R stood at 60%; at GLP-1R [2], 97%.

For the compound `CCCCCCCCCCCCCCCC(=O)N[C@@H](CCC(=O)NCCCC[C@H](NC(=O)[C@H](CO)NC(=O)[C@@H]1CCCN1C(=O)[C@@H]1CCCN1C(=O)[C@@H]1CCCN1C(=O)[C@H](C)NC(=O)CNC(=O)[C@H](CO)NC(=O)[C@H](CO)NC(=O)[C@@H]1CCCN1C(=O)CNC(=O)CNC(=O)[C@H](C)NC(=O)[C@H](CC(C)C)NC(=O)[C@H](CC(C)C)NC(=O)[C@H](Cc1c[nH]c2ccccc12)NC(=O)[C@H](CC(N)=O)NC(=O)[C@@H](NC(=O)[C@H](Cc1ccccc1)NC(=O)[C@H](CCC(=O)O)NC(=O)C(C)(C)NC(=O)[C@H](C)NC(=O)[C@H](C)NC(=O)[C@H](CCC(N)=O)NC(=O)[C@H](CCCCN)NC(=O)[C@H](CC(=O)O)NC(=O)[C@H](CC(C)C)NC(=O)[C@H](Cc1ccc(O)cc1)NC(=O)[C@@H](NC(=O)[C@H](CO)NC(=O)[C@H](Cc1ccc(O)cc1)NC(=O)[C@H](CC(=O)O)NC(=O)[C@H](CO)NC(=O)[C@@H](NC(=O)[C@H](Cc1ccccc1)NC(=O)[C@@H](NC(=O)CNC(=O)[C@H](CCC(=O)O)NC(=O)CSCC(=O)NCCn1[nH]c(=O)ccc1=O)[C@@H](C)O)[C@@H](C)O)[C@@H](C)CC)C(C)C)C(N)=O)C(=O)O` [Compound 241], the EC50 at GIP-R (EC50 GIP-R/nM) is 10 to 100 nM; on GLP-1R [1], greater than 1000 nM; at GLP-1R [2] (EC50 GLP-1R/nM), 1 to 10 nM. The maximum response (Emax) was found to be 46% at GIP-R and 100% at GLP-1R [2].

As for `CCCCCCCCCCCCCCCC(=O)N[C@@H](CCC(=O)NCCCC[C@H](NC(=O)[C@H](CO)NC(=O)[C@@H]1CCCN1C(=O)[C@@H]1CCCN1C(=O)[C@@H]1CCCN1C(=O)[C@H](C)NC(=O)CNC(=O)[C@H](CO)NC(=O)[C@H](CO)NC(=O)[C@@H]1CCCN1C(=O)CNC(=O)CNC(=O)[C@H](C)NC(=O)[C@H](CC(C)C)NC(=O)[C@H](CC(C)C)NC(=O)[C@H](Cc1c[nH]c2ccccc12)NC(=O)[C@H](CC(N)=O)NC(=O)[C@@H](NC(=O)[C@H](Cc1ccccc1)NC(=O)[C@H](CCC(=O)O)NC(=O)C(C)(C)NC(=O)[C@H](C)NC(=O)[C@H](C)NC(=O)[C@H](CCC(N)=O)NC(=O)[C@H](CCCCN)NC(=O)[C@H](CC(=O)O)NC(=O)[C@H](CC(C)C)NC(=O)[C@H](Cc1ccc(O)cc1)NC(=O)[C@@H](NC(=O)[C@H](CO)NC(=O)[C@H](Cc1ccc(O)cc1)NC(=O)[C@H](CC(=O)O)NC(=O)[C@H](CO)NC(=O)[C@@H](NC(=O)[C@H](Cc1ccccc1)NC(=O)[C@@H](NC(=O)CNC(=O)[C@H](CCC(=O)O)NC(=O)CCCC(=O)NCCN1CCOCC1=O)[C@@H](C)O)[C@@H](C)O)[C@@H](C)CC)C(C)C)C(N)=O)C(=O)O` [Compound 243], the values for the Emax on GIP-R and on GLP-1R [2] were 20% and 103%, respectively. Further, the EC50 on GIP-R (read-out: EC50 GIP-R/nM) is 10 to 100 nM; at GLP-1R [1] (setting [3]), greater than 1000 nM; on GLP-1R [2] (read-out: EC50 GLP-1R/nM), less than 0.1 nM.

Turning to `CCCCCCCCCCCCCCCC(=O)N[C@@H](CCC(=O)NCCCC[C@H](NC(=O)[C@H](CO)NC(=O)[C@@H]1CCCN1C(=O)[C@@H]1CCCN1C(=O)[C@@H]1CCCN1C(=O)[C@H](C)NC(=O)CNC(=O)[C@H](CO)NC(=O)[C@H](CO)NC(=O)[C@@H]1CCCN1C(=O)CNC(=O)CNC(=O)[C@H](C)NC(=O)[C@H](CC(C)C)NC(=O)[C@H](CC(C)C)NC(=O)[C@H](Cc1c[nH]c2ccccc12)NC(=O)[C@H](CC(N)=O)NC(=O)[C@@H](NC(=O)[C@H](Cc1ccccc1)NC(=O)[C@H](CCC(=O)O)NC(=O)C(C)(C)NC(=O)[C@H](C)NC(=O)[C@H](C)NC(=O)[C@H](CCC(N)=O)NC(=O)[C@H](CCCCN)NC(=O)[C@H](CC(=O)O)NC(=O)[C@H](CC(C)C)NC(=O)[C@H](Cc1ccc(O)cc1)NC(=O)[C@@H](NC(=O)[C@H](CO)NC(=O)[C@H](Cc1ccc(O)cc1)NC(=O)[C@H](CC(=O)O)NC(=O)[C@H](CO)NC(=O)[C@@H](NC(=O)[C@H](Cc1ccccc1)NC(=O)[C@@H](NC(=O)CNC(=O)[C@H](CCC(=O)O)NC(=O)C(C)(C)CC(=O)NCCN1CCOCC1=O)[C@@H](C)O)[C@@H](C)O)[C@@H](C)CC)C(C)C)C(N)=O)C(=O)O` [Compound 244], the results for the Emax at GIP-R and at GLP-1R [2] were 50% and 100%, respectively. Further, the EC50 at GIP-R (read-out: EC50 GIP-R/nM) is 1 to 10 nM; at GLP-1R [1] (setting [3]) it was 10 to 1000 nM; on GLP-1R [2] (read-out: EC50 GLP-1R/nM) it was less than 0.1 nM.
